Values after ≈ are worked out from the molar mass of the structure shown.
Assays:
[1] = tested on: Staphylococcus aureus SG 511; test: series dilution test in the microtiter system (MIC), S. aureus SG 511; type: cell-based; conditions: SG511, 18 to 20 hours at 37° C., liquid medium, read-out: minimum inhibitory concentrations (MIC), S.aureus SG 511
Procedure: (§1) The method of the series dilution test in the microtiter system was used. The substances were tested for bacteriostasis in a liquid medium. The bacteriostatic activity was tested at the following concentrations:
(§2) A nutrient medium having the following composition was used: 10 gm of peptone, 8 gm of meat extract oxoid, 3 gm of sodium chloride, and 2 gm of sec. sodium phosphate were made up to […] with distilled water (pH 7.2 to 7.4). The age of the primary cultures was about 20 hours.
(§3) The bacterial suspension was adjusted using the photometer (according to "Eppendorf", test tube diameter 14 mm, filter 546 nm) by reference to the turbidity of a barium sulfate comparison suspension which was produced by a barium sulfate suspension formed by the addition of 3.0 ml of 1% barium chloride solution to 97 ml of 1% sulfuric acid. After adjustment, Streptococcus aronson was diluted in the ratio 1:15 and the other test pathogens were diluted in the ratio 1:1500 with a common salt solution.
(§4) 16 mg of the test substance were weighed in 10 ml measuring flasks and solvent was added up to the mark. Further dilutions in the series were made with distilled water or the solvent in question.
(§5) The depressions in the microtiter plates were filled with 0.2 ml of nutrient medium, 0.01 ml of the corresponding diluted substance and a drop of bacterial suspension (0.01 ml) and incubated for 18 to 20 hours at 37° C. A solvent check was carried out continuously at the same time.
(§6) The reading was taken macroscopically, and the respective limiting concentration (=the lowest concentration still having bacteriostatic activity) was determined.
(§7) The following were used as test organisms:
(§8) Staphylococcus aureus SG 511, Escherichia coli ATCC 11 775, Pseudomonas aeruginosa Hamburgensis and Pseudomonas aeruginosa BC 19, Serratia Marcescens ATCC 13 880, Klebsiella pneumoniae ATCC 10 031 and BC 6, Proteus mirabilis Hamburgensis, Proteus rettgeri BC 7, Enterobacter cloacae ATCC 13 047.
(§9) Table 1 below lists the minimum inhibitory concentrations (MIC) in μgm/ml determined for typical representatives of the compounds of the present invention. These are the sodium salts of compounds of the formula I where A=p-hydroxyphenyl and R has the indicated meanings.

[2] = tested on: Escherichia coli ATCC 11 775; test: series dilution test in the microtiter system (MIC), E. coli ATCC 11775; type: cell-based; conditions: 18 to 20 hours at 37° C., liquid medium, read-out: minimum inhibitory concentrations (MIC), E.Coli ATCC 11775
Procedure: as §1, §2, §3, §4, §5, §6, §7, §8, §9

[3] = tested on: Pseudomonas aeruginosa Hamburgensis; test: series dilution test in the microtiter system (MIC), Ps. aeruginosa Hamburgensis; type: cell-based; conditions: 18 to 20 hours at 37° C., liquid medium, read-out: minimum inhibitory concentrations (MIC), Pseud. aerug. Hbg.
Procedure: as §1, §2, §3, §4, §5, §6, §7, §8, §9

[4] = tested on: Pseudomonas aeruginosa BC 19; test: series dilution test in the microtiter system (MIC), Ps. aeruginosa BC 19; type: cell-based; conditions: BC19, 18 to 20 hours at 37° C., liquid medium, read-out: minimum inhibitory concentrations (MIC), Pseud. aerug. BC 19
Procedure: as §1, §2, §3, §4, §5, §6, §7, §8, §9

[5] = tested on: Serratia Marcescens ATCC 13 880; test: series dilution test in the microtiter system (MIC), Serratia marcescens ATCC 13880; type: cell-based; conditions: 18 to 20 hours at 37° C., liquid medium, read-out: minimum inhibitory concentrations (MIC), Serrat. marcesc. ATCC 13880
Procedure: as §1, §2, §3, §4, §5, §6, §7, §8, §9

[6] = tested on: Klebsiella pneumoniae ATCC 10 031; test: series dilution test in the microtiter system (MIC), Klebsiella pneumoniae ATCC 10031; type: cell-based; conditions: 18 to 20 hours at 37° C., liquid medium, read-out: minimum inhibitory concentrations (MIC), Klebs.pneum. ATCC 10031
Procedure: as §1, §2, §3, §4, §5, §6, §7, §8, §9

[7] = tested on: Klebsiella pneumoniae BC 6; test: series dilution test in the microtiter system (MIC), Klebsiella pneumoniae BC 6; type: cell-based; conditions: BC6, 18 to 20 hours at 37° C., liquid medium, read-out: minimum inhibitory concentrations (MIC), Klebs. pneum. BC 6
Procedure: as §1, §2, §3, §4, §5, §6, §7, §8, §9

[8] = tested on: Proteus mirabilis Hamburgensis; test: series dilution test in the microtiter system (MIC), Proteus mirabilis Hamburgensis; type: cell-based; conditions: 18 to 20 hours at 37° C., liquid medium, read-out: minimum inhibitory concentrations (MIC), Prot. mirabilis Hbg
Procedure: as §1, §2, §3, §4, §5, §6, §7, §8, §9

Proteus rettgeri BC 7 = test: series dilution test in the microtiter system (MIC), Proteus rettgeri BC 7; type: cell-based; conditions: Providencia rettgeri, BC7; 18 to 20 hours at 37° C., liquid medium; read-out: minimum inhibitory concentrations (MIC), Prot. geri BC
Procedure: as §1, §2, §3, §4, §5, §6, §7, §8, §9

[9] = tested on: Enterobacter cloacae ATCC 13 047; test: series dilution test in the microtiter system (MIC), Enterobacter cloacae ATCC 13047; type: cell-based; conditions: 18 to 20 hours at 37° C., liquid medium, read-out: minimum inhibitory concentrations (MIC), Eb.cloacae ATCC 13047
Procedure: as §1, §2, §3, §4, §5, §6, §7, §8, §9

E. coli ATCC 11775 = test: in vivo experimental E. coli infection in mice; design: species or system mice (female, NMRI strain); conditions: Escherichia coli, ATCC11775, sc, 168 h; subcutaneous, one treatment 1 hour post infectionem; 50% survival, 7 days observation
Procedure: (§10) A number of the compounds of the present invention were tested in vivo against experimental infections in mice. E. coli ATCC 11775 and Pseudomonas aeruginosa BC 19 were used as the pathogenic bacteria. An intraperitoneal infection was produced with 0.2 ml of a 5% mucin suspension of the bacteria. This corresponds to about 1.4×10^6 E. coli bacteria and 1.3×10^6 Pseudomonas bacteria per mouse. Female mice of the NMRI strain were divided into groups of 10 animals; two groups were untreated, the other groups were treated subcutaneously with various doses of the penicillins of the present invention, to determine the ED50 (dose at which 50% of the animals survived). For the E. coli infection, one treatment was given*. For the Pseudomonas infection, three treatments were given (1, 3 and 5 hours post-infectionem). *1 hour post infectionem In both cases, the observation period was 7 days.

[10] = tested on: Pseudomonas aeruginosa BC 19; test: in vivo experimental Pseudomonas infection in mice; design: species or system mice (female, NMRI strain); conditions: BC19, sc, 168 h, subcutaneous, three treatments 1, 3 and 5 hours post-infectionem, 50% survival, 7 days observation, read-out: ED50, Pseud. Infection
Procedure: as §10, with “post-infectionem).” for “post-infectionem). *1 hour post infectionem”

Row | SMILES | MIC [1] [µg/mL] | MIC [2] [µg/mL] | MIC [3] [µg/mL] | MIC [4] [µg/mL] | MIC [5] [µg/mL] | MIC [6] [µg/mL] | MIC [7] [µg/mL] | MIC [8] [µg/mL] | MIC (Proteus rettgeri BC 7) [µg/mL] | MIC [9] [µg/mL] | ED50 (E. coli ATCC 11775) [mg/kg] | ED50 [10] [mg/kg]
1 | CC1(C)S[C@@H]2[C@H](NC(=O)C(NC(=O)Nc3cnc(Nc4ccc(S(=O)(=O)NC5=NCCCN5)cc4)nc3O)c3ccc(O)cc3)C(=O)N2[C@H]1C(=O)O (some centres unmarked) [A] | 0.25 (≈ 0.331 µM) | 0.25 (≈ 0.331 µM) | 1 (≈ 1.32 µM) | 1 (≈ 1.32 µM) | 0.5 (≈ 0.662 µM) | 2 (≈ 2.65 µM) | 2 (≈ 2.65 µM) | 0.06 (≈ 0.0795 µM) | 0.5 (≈ 0.662 µM) | 0.5 (≈ 0.662 µM) | 0.6 | 2.1
2 | CC1(C)S[C@@H]2[C@H](NC(=O)C(NC(=O)Nc3cnc(Nc4ccc(S(=O)(=O)NC5=NCCN5)cc4)nc3O)c3ccc(O)cc3)C(=O)N2[C@H]1C(=O)O (some centres unmarked) [B] | 0.5 (≈ 0.675 µM) | 0.25 (≈ 0.337 µM) | 2 (≈ 2.7 µM) | 1 (≈ 1.35 µM) | 0.25 (≈ 0.337 µM) | 2 (≈ 2.7 µM) | 4 (≈ 5.4 µM) | 0.06 (≈ 0.081 µM) | 0.5 (≈ 0.675 µM) | 0.1 (≈ 0.135 µM) | 0.7 | 1.9
3 | CC1(C)S[C@@H]2[C@H](NC(=O)C(NC(=O)Nc3cnc(Nc4ccc(S(=O)(=O)NC5=NCCS5)cc4)nc3O)c3ccc(O)cc3)C(=O)N2[C@H]1C(=O)O (some centres unmarked) [C] | 0.25 (≈ 0.33 µM) | 0.12 (≈ 0.158 µM) | 1 (≈ 1.32 µM) | 2 (≈ 2.64 µM) | 0.25 (≈ 0.33 µM) | 1 (≈ 1.32 µM) | 1 (≈ 1.32 µM) | 0.06 (≈ 0.0792 µM) | 0.25 (≈ 0.33 µM) | 0.5 (≈ 0.66 µM) | ~3 | 17
4 | CC1(C)S[C@@H]2[C@H](NC(=O)C(NC(=O)Nc3cnc(Nc4ccc(S(=O)(=O)NC5=NCCO5)cc4)nc3O)c3ccc(O)cc3)C(=O)N2[C@H]1C(=O)O (some centres unmarked) [D] | 0.5 (≈ 0.674 µM) | 0.25 (≈ 0.337 µM) | 1 (≈ 1.35 µM) | 1 (≈ 1.35 µM) | 0.25 (≈ 0.337 µM) | 2 (≈ 2.7 µM) | 4 (≈ 5.39 µM) | 0.06 (≈ 0.0809 µM) | 0.25 (≈ 0.337 µM) | 1 (≈ 1.35 µM) | ~2 | –
5 | CC1(C)S[C@@H]2[C@H](NC(=O)C(NC(=O)Nc3cnc(Nc4ccc(S(=O)(=O)NCCO)cc4)nc3O)c3ccc(O)cc3)C(=O)N2[C@H]1C(=O)O (some centres unmarked) [F] | 0.5 (≈ 0.698 µM) | 0.25 (≈ 0.349 µM) | 2 (≈ 2.79 µM) | 1 (≈ 1.4 µM) | 0.13 (≈ 0.181 µM) | 2 (≈ 2.79 µM) | 4 (≈ 5.58 µM) | 0.06 (≈ 0.0837 µM) | 0.5 (≈ 0.698 µM) | 2 (≈ 2.79 µM) | ~5 | 10 to 20
6 | CC1(C)S[C@@H]2[C@H](NC(=O)C(NC(=O)Nc3cnc(Nc4ccc(S(=O)(=O)NCC(N)=O)cc4)nc3O)c3ccc(O)cc3)C(=O)N2[C@H]1C(=O)O (some centres unmarked) [G] | 0.5 (≈ 0.685 µM) | 0.12 (≈ 0.164 µM) | 1 (≈ 1.37 µM) | 1 (≈ 1.37 µM) | 0.25 (≈ 0.343 µM) | 2 (≈ 2.74 µM) | 2 (≈ 2.74 µM) | 0.06 (≈ 0.0822 µM) | 0.5 (≈ 0.685 µM) | 1 (≈ 1.37 µM) | ~5 | –
7 | CC1(C)S[C@@H]2[C@H](NC(=O)C(NC(=O)Nc3cnc(Nc4ccc(S(=O)(=O)N5CCN(C=O)CC5)cc4)nc3O)c3ccc(O)cc3)C(=O)N2[C@H]1C(=O)O (some centres unmarked) [H] | 0.5 (≈ 0.65 µM) | 0.25 (≈ 0.325 µM) | 2 (≈ 2.6 µM) | 1 (≈ 1.3 µM) | 0.25 (≈ 0.325 µM) | 2 (≈ 2.6 µM) | 2 (≈ 2.6 µM) | 0.06 (≈ 0.0779 µM) | 0.5 (≈ 0.65 µM) | 1 (≈ 1.3 µM) | – | –
8 | CC1(C)S[C@@H]2[C@H](NC(=O)[C@H](NC(=O)N3CCNC3=O)c3ccccc3)C(=O)N2[C@H]1C(=O)O [J, azlocillin, reference compound] | 0.5 (≈ 1.08 µM) | 8 (≈ 17.3 µM) | 8 (≈ 17.3 µM) | 8 (≈ 17.3 µM) | 4 (≈ 8.67 µM) | 32 (≈ 69.3 µM) | 32 (≈ 69.3 µM) | 2 (≈ 4.33 µM) | 8 (≈ 17.3 µM) | 32 (≈ 69.3 µM) | > 100 | > 100

Source: patent publication US4379784A, “Pyrimidinyl ureido penicillins” (Dr. Karl Thomae Gesellschaft mit beschrankter Haftung, priority 1980, dated 1983)
